Data on six molecules can be found in patent publication US5786335A, “Sulfhydryl containing peptides for treating vascular disease” (Warner-Lambert Company, priority 1996, dated 1998).

pIC50: −log10 of the molar value. Residues, ends and D or L forms follow the SMILES beside them. No end group written: not given here.

This assay concerns the target Lp(a) formation (coupling between apo(a) and LDL) (Homo sapiens, UniProt P08519). Description: in vitro Lp(a) formation assay: coupling of recombinant human apo(a) with LDL, western blot with densitometry or visual inspection. Conditions: for inhibition at 125 µM: 125 μM peptide, densitometry of Lp(a) bands; for inhibition at 125 µM / pIC50: 37° C. for 30 minutes; for pIC50: western blot, read-out: IC50 (concentration required to inhibit 50% of Lp(a) formation). The assay is classed as biochemical. More on the design: key to Relative Activity: An easily detectable change from control was assigned as (+); a marked change from control was assigned as (++). How it is done: As pointed out above, the peptides of this invention are useful for treating vascular diseases due to their ability to inhibit formation of Lp(a). The compounds have been evaluated in an in vitro assay which established that the subject compounds are potent inhibitors of Lp(a) formation. The assay was carried out by mixing approximately equal quantities of recombinant human apo(a) with low-density lipoprotein (LDL) in a […] microcentrifuge tube. Control vessels contained no invention peptide, whereas test vessels contained a peptide of Formula I. The mixtures were incubated at 37° C. for 30 minutes. The coupling between apo(a) and LDL was quenched by addition of sodium dodecylsulfate (SDS)-PAGE loading buffer. The mixture is next resolved on 4% polyacrylamide gels, and Lp(a) is detected by western blotting using a monospecific human Lp(a) antibody. The intensity of the Lp(a) bands on the blots is measured by a commercial densitometer.
Table I below gives the percent inhibition of Lp(a) formation at 125 μM concentration of representative peptides of the invention, as well as the concentration of representative compounds required to inhibit 50% of Lp(a) formation (IC50).
Additional compounds were evaluated in the above assay, and the western blots were visually inspected for changes in Lp(a) particle formation as a consequence of peptide mediated inhibition. Experimental lanes were visually compared to control lanes and assessed as follows: An easily detectable change from control was assigned as (+); a marked change from control was assigned as (++).
Background: In western blotting, separated proteins are transferred to a membrane and probed.

Chain of Lp(a) formation (coupling between apo(a) and LDL) (P08519 20-2040): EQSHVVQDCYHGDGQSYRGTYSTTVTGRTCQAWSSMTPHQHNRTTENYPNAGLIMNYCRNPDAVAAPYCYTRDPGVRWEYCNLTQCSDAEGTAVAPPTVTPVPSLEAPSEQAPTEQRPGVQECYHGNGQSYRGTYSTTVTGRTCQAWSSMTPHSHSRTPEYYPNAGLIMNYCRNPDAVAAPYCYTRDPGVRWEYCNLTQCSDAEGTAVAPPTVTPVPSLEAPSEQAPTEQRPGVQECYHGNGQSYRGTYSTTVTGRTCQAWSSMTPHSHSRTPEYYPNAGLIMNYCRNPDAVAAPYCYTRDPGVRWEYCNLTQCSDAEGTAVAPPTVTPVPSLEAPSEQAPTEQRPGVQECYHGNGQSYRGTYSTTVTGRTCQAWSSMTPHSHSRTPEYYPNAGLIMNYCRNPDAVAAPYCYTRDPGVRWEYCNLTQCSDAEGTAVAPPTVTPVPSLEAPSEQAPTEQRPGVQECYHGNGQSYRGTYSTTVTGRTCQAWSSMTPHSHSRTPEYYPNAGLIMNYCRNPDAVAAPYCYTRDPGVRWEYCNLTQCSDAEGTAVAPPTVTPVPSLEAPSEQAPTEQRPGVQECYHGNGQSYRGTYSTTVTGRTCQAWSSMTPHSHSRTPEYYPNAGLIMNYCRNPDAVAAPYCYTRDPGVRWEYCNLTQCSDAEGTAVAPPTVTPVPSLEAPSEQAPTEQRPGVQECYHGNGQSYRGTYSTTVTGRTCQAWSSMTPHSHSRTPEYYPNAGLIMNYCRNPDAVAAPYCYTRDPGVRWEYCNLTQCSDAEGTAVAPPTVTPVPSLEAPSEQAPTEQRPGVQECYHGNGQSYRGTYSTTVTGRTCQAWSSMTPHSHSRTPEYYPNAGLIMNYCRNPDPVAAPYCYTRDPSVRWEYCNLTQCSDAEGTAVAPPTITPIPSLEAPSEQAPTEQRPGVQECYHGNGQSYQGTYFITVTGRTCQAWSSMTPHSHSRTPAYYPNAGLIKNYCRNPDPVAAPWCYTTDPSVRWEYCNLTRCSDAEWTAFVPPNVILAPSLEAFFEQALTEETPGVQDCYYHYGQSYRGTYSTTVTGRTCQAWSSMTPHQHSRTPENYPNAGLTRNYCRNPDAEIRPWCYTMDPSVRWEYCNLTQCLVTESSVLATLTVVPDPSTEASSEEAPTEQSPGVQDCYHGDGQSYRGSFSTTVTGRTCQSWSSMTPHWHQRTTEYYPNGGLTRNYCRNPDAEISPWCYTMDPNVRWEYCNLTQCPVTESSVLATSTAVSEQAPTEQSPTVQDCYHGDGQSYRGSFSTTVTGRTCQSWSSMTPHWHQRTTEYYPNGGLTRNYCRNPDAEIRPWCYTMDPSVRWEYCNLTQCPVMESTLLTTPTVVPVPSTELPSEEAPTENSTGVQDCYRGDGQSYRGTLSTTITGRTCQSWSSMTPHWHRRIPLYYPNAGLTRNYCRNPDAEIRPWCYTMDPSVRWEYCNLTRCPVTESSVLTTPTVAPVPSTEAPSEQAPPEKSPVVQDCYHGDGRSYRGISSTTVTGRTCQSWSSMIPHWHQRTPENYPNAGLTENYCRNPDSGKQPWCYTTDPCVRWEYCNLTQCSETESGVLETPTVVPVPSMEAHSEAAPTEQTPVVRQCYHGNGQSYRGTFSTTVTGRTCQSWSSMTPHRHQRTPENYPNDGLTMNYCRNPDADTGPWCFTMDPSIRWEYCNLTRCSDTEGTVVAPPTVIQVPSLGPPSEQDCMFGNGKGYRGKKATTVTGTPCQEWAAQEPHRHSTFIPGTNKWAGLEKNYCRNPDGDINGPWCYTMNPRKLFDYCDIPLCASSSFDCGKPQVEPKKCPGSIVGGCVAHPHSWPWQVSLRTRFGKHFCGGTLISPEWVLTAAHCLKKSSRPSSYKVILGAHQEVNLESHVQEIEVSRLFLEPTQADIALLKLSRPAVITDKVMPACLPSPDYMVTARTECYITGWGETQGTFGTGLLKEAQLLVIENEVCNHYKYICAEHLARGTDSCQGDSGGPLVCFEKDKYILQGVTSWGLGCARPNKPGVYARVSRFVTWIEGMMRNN

On to AQCYK [Ala--Gln--Cys--Tyr--Lys], for which the inhibition at 125 µM worked out at 36.9%.
The same measure, in the same setting: to IQCAK [Ile--Gln--Cys--Ala--Lys] belongs 76.4%.
As to `NCCCC[C@H](NC(=O)[C@H](Cc1ccc(O)cc1)NC(=O)[C@@H](N)CS)C(=O)O` [Cys--Tyr--Lys] (H-Cys-Tyr-Lys-OH), the inhibition at 125 µM worked out at 90% and the pIC50 was 4.30.
`CC(=O)N[C@@H](CS)C(=O)N[C@@H](Cc1ccc(O)cc1)C(=O)N[C@@H](CCCCN)C(N)=O` [Ac--Cys--Tyr--Lys--NH2] (Ac-Cys-Tyr-Lys-NH2): the “Relative Activity” value (western blots visually inspected, experimental lanes compared to control lanes) was “+”.
For “IQCYK [Ile--Gln--Cys--Tyr--Lys, Ile-Gln-Cys-Tyr-Lys]”, the inhibition at 125 µM turned out to be 50.1% and the pIC50 was 3.96.
As for IACYK [Ile--Ala--Cys--Tyr--Lys], the inhibition at 125 µM amounted to 29.8%.

The inhibition is how much of the control response was suppressed.
